A word on the pKi: it is the Ki on a negative log10 scale, so that one unit is a factor of ten. Higher therefore signals a small Ki.

Assay [1] deals with nicotinic acetylcholine receptors (nAChRs), [^3H]-epibatidine binding sites in rat cerebral cortex. The experiment in a line: Homogenate binding assay with [^3H]-epibatidine, rat cerebral cortex homogenates.
Assay [2] has the same test system.
Assay [3] concerns the target nicotinic acetylcholine receptors (nAChRs), [^3H]-epibatidine binding sites in rat cerebellum.
For assay [4], the system named is nAChRs ([^3H]-epibatidine binding sites) in rat cortex and cerebellum. As to conditions: in vivo.
Assay [5] deals with nicotinic acetylcholine receptors (nAChRs), [^3H]-epibatidine binding sites in rat cerebellum. The source holds these as a separate data set.

Several values for one entry are separate records, joined by “and”; a condition that tells them apart may be missing. Identical values can stand only once. Counter-ions that a name gives are not always drawn. Like-named read-outs stand apart in the source and are kept apart here.

Turning to `CNC1(C)C2CCC(C2)C1(C)C` (stereo not drawn) [Mecamylamine, mecamylamine hydrochloride], the “Competition in the [^3H]-epibatidine binding assay” value (“Competition” for short) in assay [1] and in assay [2] was “failed to compete” in each case. Moreover, the “pKi (single site; one-site fit)” value in assay [1] (cortex homogenates, 200 pM [^3H]-epibatidine, 5 h, 4°C) is listed as “NI (NI, no inhibition)”. Besides, the “pKi (single site; cell spans pKihigh and pKilow columns)” value in assay [2] (cortex segments, 400 pM [^3H]-epibatidine, 28 h, 4°C) is reported as “NI (NI, no inhibition)”.

Consider `C[N+](C)(C)CCCCCC[N+](C)(C)C` [Hexamethonium, hexamethonium chloride], for which, in assay [1], the “Competition” value is reported as “competitive” and the “pKi (single site; one-site fit)” value worked out at 4.0 ± 0.1. For the same compound, in assay [2], the “Competition” value was “competitive”; the “pKi (single site; cell spans pKihigh and pKilow columns)” value amounted to 3.4 ± 0.1.

In assay [1], `O=c1cccc2n1C[C@@H]1CNC[C@H]2C1` [Cytisine, cytisine] displayed a pKihigh of 9.4 ± 0.0 and a pKilow of 7.2 ± 0.2. In assay [2], this compound returned a pKihigh of 8.7 ± 0.1 and a pKilow of 6.7 ± 0.1.

For `CN1CCC[C@H]1c1cccnc1` [Nicotine, nicotine], in assay [1], the pKi was 8.1 ± 0.1 and the “pKi (single site; one-site fit)” value worked out at 8.4 ± 0.1. In assay [2], the pKihigh was 7.8 ± 0.2 and 7.9 ± 0.1; the pKilow was 6.3 ± 0.2 and 6.5 ± 0.1. In assay [3], this compound displayed a pKihigh of 8.2 ± 0.1 and a pKilow of 6.3 ± 0.1. Also, the “Upregulation of nAChRs” value in assay [4] is reported as “no upregulation”. For the same compound, the “pKi (single site; cell spans pKihigh and pKilow columns)” value in assay [5] came out at 7.1 ± 0.2.

As for `CO[C@H]1CC=C2CCN3CCC4=C(CC(=O)OC4)[C@]23C1` [Dihydro-β-erythroidine, dihydro-β-erythroidine], the values for the pKihigh in assay [1] and in assay [2] were 7.7 ± 0.2 and 7.1 ± 0.1, respectively. In addition, the pKilow in assay [1] worked out at 6.3 ± 0.1; in assay [2], 5.7 ± 0.2.

These data come from PMC3198036 (Frontiers in Pharmacology, 2011).
